Results on 1 molecule are retold here after patent US20090035345A1, “Nuclear Receptors Agonists for Treatment of Atherosclerosis and/or Related Cardiovascular Disease” (ACADEMISCH MEDISCH CENTRUM, BUREAU, priority 2005, published 2009).

One assay concerns the target T1, Nur77 (Homo sapiens, UniProt P22736).
T1 construct: expressed in transfected cells; host or cells: cultured human smooth muscle cells (SMCs), lentivirally transduced
In words: Nur77 reporter (NurRE) luciferase assay in Nur77-expressing SMCs. In kind it is cell-based. On the procedure: Cells were electroporated using the Amaxa method(Amaxa, Germany) with nucleofector reagent for SMCs. In each transfection, 0.5−1.0×10^6 cells were used and 3.5 μg Nur77-reporter plasmid with 1.5 μg Renilla luciferase plasmid (containing the thymidine kinase promoter) to correct for cell number and transfection efficiency. The NUR77-reporter plasmid contained the Nur response element (NurRE) of the POMC-promoter in triplicate with the −34/+63 minimal promoter of POMC gene.^19 24 hours after transfection, cells were incubated with 6-MP (Sigma) for 24 hours and luciferase activity was assayed with the Dual luciferase reporter system (Promega, Madison, Wis.).
To investigate whether 6-MP increases Nur77 transcriptional activity in vascular cells, human SMCs were transduced with lentivirus encoding Nur77, resulting in expression in 85-90% of the infected cells and increased Nur77 mRNA levels compared to mock-infected SMCs (data not shown). […] Nur77-overexpressing SMCs were subsequently electroporated with the firefly luciferase reporter construct, containing the palindromic NurRE (Nur77 response element from the POMC-promoter) sequence (TGATATTTn6AAATGCCA) to monitor Nur77 transcriptional activity in combination with the thymidine kinase-renilla luciferase construct as a control for transfection efficiency.

In the next assay the test system is human SMCs. Briefly: DNA synthesis assay ([3H]thymidine incorporation) in FBS-stimulated cultured SMCs. The assay is classed as cell-based. On the procedure: Human SMCs were explanted from umbilical cord arteries. Cells were cultured in DMEM (Invitrogen Life Technology, Breda, The Netherlands) with 10% (v/v) fetal bovine serum (FBS) with penicillin and streptomycin (Invitrogen). Cells were used at passages five to seven. […] To determine cellular viability, cells were washed with PBS and subsequently incubated in medium in the presence of 0.5-mg/ml 3-(4,5-dimethylthiazol-2-yl)-2,5-diphenyltetrazolium bromide (MTT; Sigma Diagnostics, St. Louis). After two hours, medium was discarded, formazan crystals were dissolved in isopropanol and optical density was measured at 590 nm. Apoptosis was induced by incubating cells for 24 hours in medium with 0.25 μM staurosporine (Sigma). Subsequently, SMCs were fixed, stained with Hoechst dye and the relative number of apoptotic nuclei was determined.
SMCs were seeded in 24-well plates at 1−4×10^4 cells per well and reached 60% to 70% confluency after 24 hours. SMCs were made quiescent by incubation for 24 hours in FBS-free medium. 6-MP was dissolved in dimethylsulfoxide and applied one hour before FBS stimulation. SMCs were stimulated for 24 hours with 10% (v/v) FBS and subsequently cells were labeled for 18 hours with 0.25 μCi/well [methyl-3H]thymidine (Amersham Biosciences, Buckinghamshire, UK). Incorporated radioactivity was precipitated for 30 min at 4° C. with 10% (w/v) trichloroacetic acid, washed twice with 5% (w/v) trichloroacetic acid, and dissolved in 0.5 N NaOH (0.5 mL per well). Incorporated [^3H]thymidine was measured by liquid-scintillation counting.
(§1) The following small interfering (si)RNA sequences were used: Nur77 siRNA, 5′-CAG UCC AGC CAU GCU CCU C dTdT-3′, as described previously^20, and control siRNA, 5′-CAG ACG AGC CUU GCU CGU C dTdT-3′ (Ambion Inc., Austin, Tex.). Five μg of siRNA was transfected into 0.5−1×10^6 SMCs, using Nucleofector reagent for SMCs (Amaxa) as per the manufacturer's recommendations. Total mRNA was isolated five days after transfection, using the absolutely mRNA miniprep kit (Stratagene, La Jolla, Calif.). Subsequent cDNA synthesis was performed using the iScript cDNA synthesis kit (Biorad, Hercules, Calif.). Real-time polymerase chain reaction (PCR) was performed using SYBR green mix (Biorad) in the MyIQ System (Biorad). Primers for Nur77 were as follows: (forward) 5′-[…]-3′ and (reverse) 5′-[…]-3′. As a control for equal amount of first strand cDNA in different samples we corrected for Ribosomal Phosphoprotein (P0) mRNA levels, which were determined with the following primers (forward) 5′-[…]-3′ and (reverse) 5′-[…]-3′.
as §1, with “iscript” for “iScript”

For assay [1], the system named is SMα-actin, calponin and p27Kip1 protein. In words: Western blotting of stretched venous SMCs. In kind it is cell-based, human. The settings on record: 25 μM 6-MP. On the procedure:
Sodium dodecyl sulfate-polyacrylamide gel electrophoresis was performed with cell lysates (30 microg per lane) and concentrated culture media (equivalent of 200 microl per lane). Proteins were transferred to nitrocellulose-Protran (Schleicher and Schuell, 's-Hertogenbosch, The Netherlands).
Expression of p27^Kip1 (BD Biosciences, Alphen a/d Rijn, The Netherlands), p21^Cip1 (BD), SM alpha-actin (DAKO), PAI-1 (MAI-12; Biopool, Umea, Sweden), TR3 (M-210; Santa Cruz Biotechnology, Santa Cruz, Calif.), calponin (clone hCP; Sigma) and alpha-tubulin (Cedar Lane, Hornby, Ontario, Canada) was studied, using the indicated antibodies directed against these proteins. Primary antibodies were incubated overnight at 4° C. in 5% Protifar plus (Nutricia, Cuijk, The Netherlands) in TBS. As secondary antibodies, horseradish peroxidase-conjugated goat anti-rabbit (for p27^Kip1 and TR3 detection) or goat anti-mouse (for all others) (BioRad 11 Laboratories Inc., Hercules, Calif.) in a dilution of 1:5000 in TBS were used.
Proteins were visualized by enhanced chemiluminescence detection (Lumi-Light^PLUS; Roche Diagnostics GmbH, Mannheim, Germany). Quantitative analysis was performed by the Lumi-Imager (Boehringer Mannheim, Mannheim, Germany). alpha-Tubulin staining served as a control for loading.

T1 sequence (P22736 whole entry): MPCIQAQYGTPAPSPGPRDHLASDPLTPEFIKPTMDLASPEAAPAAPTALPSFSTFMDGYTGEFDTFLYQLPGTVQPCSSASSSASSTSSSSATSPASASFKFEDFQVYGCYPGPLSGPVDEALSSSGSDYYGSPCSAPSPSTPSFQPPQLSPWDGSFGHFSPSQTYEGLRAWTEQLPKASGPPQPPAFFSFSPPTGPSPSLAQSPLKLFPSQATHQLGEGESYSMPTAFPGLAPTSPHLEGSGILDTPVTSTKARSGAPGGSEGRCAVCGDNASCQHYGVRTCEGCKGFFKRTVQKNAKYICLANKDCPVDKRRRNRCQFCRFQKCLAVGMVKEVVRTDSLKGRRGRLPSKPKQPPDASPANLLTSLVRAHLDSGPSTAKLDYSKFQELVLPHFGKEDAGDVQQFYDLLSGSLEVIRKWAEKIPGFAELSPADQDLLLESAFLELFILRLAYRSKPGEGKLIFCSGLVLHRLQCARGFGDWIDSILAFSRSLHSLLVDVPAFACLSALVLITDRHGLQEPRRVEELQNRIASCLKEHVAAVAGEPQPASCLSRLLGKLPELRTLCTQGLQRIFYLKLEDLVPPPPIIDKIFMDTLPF

For the molecule `Sc1ncnc2nc[nH]c12` [6-MP, 6-mercaptopurine], at Nur77 (50 μM, 24 hours), the “increase in Nur77 activity (luciferase)” value was determined as 10 fold. In addition, the Nur77 transcriptional activity entry at Nur77 (24 hours in the presence of 6-MP) is on record as “enhances Nur77 activity”. Moreover, the “DNA synthesis in SMCs” value in the assay with human SMCs (25 μM or 50 μM) is given as “reduced”; in the assay with human SMCs (increasing concentrations, 10% FBS), “inhibits DNA synthesis”. In addition, the “inhibition of DNA synthesis” value came out at 41% in the assay with human SMCs (SMCs transfected with Nur77 (TR3)-specific siRNA) and 61% in the assay on human SMCs (SMCs transfected with control siRNA). Besides, the “SMα-actin and calponin as well as p27Kip1 protein expression” value in assay [1] was “increases”.
